In general, inhibition refers to the change of the read-out against control, counted positive when it falls.

The source of these data is patent US20240287052A1, “NOVEL OXAZOLE DERIVATIVE AND PHARMACEUTICAL COMPOSITION FOR PREVENTING OR TREATING ALLERGIC DISEASES COMPRISING THE SAME” (AZCURIS CO., LTD., priority 2021, published 2024).

The subject of test [1] is IL-6 secretion in the human mast cell line HMC 1.1. The experiment in a line: IL-6 production inhibition assay (IL-33 stimulated HMC 1.1 cells, IL-6 ELISA). The class given is cell-based. As to conditions: 24 hours; for inhibition at 1 µM: 1 μM compound, read-out: Inhibition of hIL-6 production (%) 1 μM; for inhibition at 10 µM: 10 μM compound, read-out: Inhibition of hIL-6 production (%) 10 μM. As for the experimental part:
Human mast cell line HMC 1.1 cells were cultured in medium (Iscove's Modified Dulbecco's Medium, IMDM, HyClone) supplemented with […] fetal bovine serum (FBS, HyClone) and 1% antibiotics and maintained at 37° C. with 5% CO2.
HMC 1.1 cells, which are non-adherent cells, were cultured in 0.5 mL of culture medium containing 200 nM of IL-33 wild type human recombinant protein after centrifugation of cells in culture flasks filled to […] capacity and incubated for 24 hours with […], 10 μM, 25 μM, 30 μM or 50 μM of Example compound.
Medium was harvested by centrifugation (2,000×g, 5 min) and stored at −80° C. until ELISA assay.
Experiments were performed according to the protocol using the Human IL-6 ELISA kit (abCam).
The average of the three values obtained in triplicate was calculated and the amount of IL-6 secretion was measured using a standard curve. The measured IL-6 secretion was converted to 100% based on the vehicle treatment sample value to obtain the vehicle %.
Background: ELISA stands for enzyme-linked immunosorbent assay.

Test [2] has as its target T1, IL33 and ST2 binding (Homo sapiens, UniProt O95760).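 Further: plate ELISA with coated Flag-tagged human IL-33 and His-tagged human ST2, bound ST2 detected by anti-His HRP and TMB absorbance at 450 nm, 2 h compound incubation.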
T1 sequence (O95760 112-270 limits assumed): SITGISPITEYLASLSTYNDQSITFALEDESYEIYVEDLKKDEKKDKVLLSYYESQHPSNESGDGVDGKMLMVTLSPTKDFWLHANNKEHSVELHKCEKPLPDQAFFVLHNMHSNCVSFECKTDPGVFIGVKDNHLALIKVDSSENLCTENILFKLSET

Like-named read-outs stand apart in the source and are kept apart here.

With `CCOC(=O)c1nc(-c2ccc(C(F)(F)F)cc2)oc1-c1ccc(OC)c(OC)c1` [Compound 47, Ethyl 5-(3,4-dimethoxyphenyl)-2-(4-(trifluoromethyl)phenyl)oxazole-4-carboxylate], in test [1], the inhibition at 1 µM was determined as 36% and the inhibition at 10 µM came out at 26%. In addition, in test [2] (30 µM), the inhibition is -57%.
`CCOC(=O)c1nc(-c2ccc(C(F)(F)F)cc2)oc1-c1cc(OC)cc(OC)c1` [Compound 48, Ethyl 5-(3,5-dimethoxyphenyl)-2-(4-(trifluoromethyl)phenyl)oxazole-4-carboxylate]: in test [1], the inhibition at 1 µM came to 22% and the inhibition at 10 µM came out at 39%. The inhibition in test [2] (30 µM) is 87%.
For `CCOC(=O)c1nc(-c2ccc(C(F)(F)F)cc2)oc1-c1cc(OC)c(OC)c(OC)c1` [Compound 49, Ethyl 2-(4-(trifluoromethyl)phenyl)-5-(3,4,5-trimethoxyphenyl)oxazole-4-carboxylate], in that order: -2%, 16% and -65%.
For `CC(=O)N1CCN(CCNC(=O)c2nc(-c3ccccc3C(F)(F)F)oc2-c2ccccc2)CC1` [Compound 128, N-(2-(4-acetylpiperazin-1-yl)ethyl)-5-phenyl-2-(2-(trifluoromethyl)phenyl)oxazole-4-carboxamide] the same measures were 66%, 80% and -28%.
For `CN1CCN(CCNC(=O)c2nc(-c3ccc([N+](=O)[O-])cc3)oc2-c2ccccc2)CC1` [Compound 276, N-(2-(4-Methylpiperazin-1-yl)ethyl)-2-(4-nitrophenyl)-5-phenyloxazole-4-carboxamide], the inhibition in test [2] (30 µM) is 2%; in test [2] (100 µM), -23%.
Regarding `CN1CCN(CCNC(=O)c2nc(-c3ccc([N+](=O)[O-])cc3)oc2-c2ccccc2[N+](=O)[O-])CC1` [Compound 278, N-(2-(4-Methylpiperazin-1-yl)ethyl)-5-(2-nitrophenyl)-2-(4-nitrophenyl)oxazole-4-carboxamide], the results for the inhibition in test [2] (30 µM) and in test [2] (100 µM) were 46% and 47%, respectively.
For `CN(C)CCNC(=O)c1nc(-c2ccc(C3CC3)cc2)oc1-c1ccccc1` [Compound 279, 2-(4-Cyclopropylphenyl)-N-(2-(dimethylamino)ethyl)-5-phenyloxazole-4-carboxamide] the same measures were 16% and 4%.
For `CN1CCN(CCNC(=O)c2nc(-c3ccc(C4CC4)cc3)oc2-c2ccccc2)CC1` [Compound 280, 2-(4-Cyclopropylphenyl)-N-(2-(4-Methylpiperazin-1-yl)ethyl)-5-phenyloxazole-4-carboxamide], in that order: 2% and 0%.
For `O=C(NCCN1CCNCC1)c1nc(-c2ccc(C(F)(F)F)cc2)oc1-c1ccccc1[N+](=O)[O-]` [Compound 281, 5-(2-nitrophenyl)-N-(2-(piperazin-1-yl)ethyl)-2-(4-(trifluoromethyl)phenyl)oxazole-4-carboxamide] the same measures were 73% and 71%.
`O=C(NCCN1CCNCC1)c1nc(-c2cc(F)cc(F)c2)oc1-c1ccccc1[N+](=O)[O-]` [Compound 283, 2-(3,5-Difluorophenyl)-5-(2-nitrophenyl)-N-(2-(piperazin-1-yl)ethyl)oxazole-4-carboxamide]: the inhibition in test [2] (30 µM) is 31%; in test [2] (100 µM), 49%.
Take `CC(=O)N1CCN(CCNC(=O)c2nc(-c3cc(F)cc(F)c3)oc2-c2ccccc2[N+](=O)[O-])CC1` [Compound 286, N-(2-(4-Acetylpiperazin-1-yl)ethyl)-2-(3,5-difluorophenyl)-5-(2-nitrophenyl)oxazole-4-carboxamide]: the figures for the inhibition in test [2] (30 µM) and in test [2] (100 µM) were 18% and 33%, respectively.
`CS(=O)(=O)N1CCN(CCNC(=O)c2nc(-c3ccc(C(F)(F)F)cc3)oc2-c2ccccc2[N+](=O)[O-])CC1` [Compound 287, N-(2-(4-(methylsulfonyl)piperazin-1-yl)ethyl)-5-(2-nitrophenyl)-2-(4-(trifluoromethyl)phenyl)oxazole-4-carboxamide]: the inhibition in test [2] (30 µM) amounted to 41%; in test [2] (100 µM), 46%.
For `CS(=O)(=O)NCCNC(=O)c1nc(-c2ccc(C(F)(F)F)cc2)oc1-c1ccccc1[N+](=O)[O-]` [Compound 288, N-(2-(Methylsulfonamido)ethyl)-5-(2-nitrophenyl)-2-(4-(trifluoromethyl)phenyl)oxazole-4-carboxamide] the same measures were 43% and 50%.
For `COCCNC(=O)c1nc(-c2ccc(C(F)(F)F)cc2)oc1-c1cccc(SC)c1` [Compound 293, N-(2-Methoxyethyl)-5-(3-(methylthio)phenyl)-2-(4-(trifluoromethyl)phenyl)oxazole-4-carboxamide] the same measures were 40% and 107%.
On to `CCCNC(=O)c1nc(-c2ccc(C(F)(F)F)cc2)oc1-c1ccccc1` [Compound 295, 5-Phenyl-N-propyl-2-(4-(trifluoromethyl)phenyl)oxazole-4-carboxamide], for which, in test [1], the inhibition at 1 µM is 53% and the inhibition at 10 µM came to 57%.
For `CCNC(=O)c1nc(-c2ccc(C(F)(F)F)cc2)oc1-c1ccccc1OC` [Compound 296, N-Ethyl-5-(2-methoxyphenyl)-2-(4-(trifluoromethyl)phenyl)oxazole-4-carboxamide] the same measures were 0% and 32%.
For the compound `CCCNC(=O)c1nc(-c2ccc(C(F)(F)F)cc2)oc1-c1ccccc1OC` [Compound 297, 5-(2-Methoxyphenyl)-N-propyl-2-(4-(trifluoromethyl)phenyl)oxazole-4-carboxamide], in test [1], the inhibition at 1 µM worked out at 3% and the inhibition at 10 µM stood at 34%.
For `CCCNC(=O)c1nc(-c2ccc(C(F)(F)F)cc2)oc1-c1cccc(OC)c1` [Compound 299, 5-(3-Methoxyphenyl)-N-propyl-2-(4-(Trifluoromethyl)phenyl)oxazole-4-carboxamide] the same measures were 40% and 57%.
`CCNC(=O)c1nc(-c2ccc(C(F)(F)F)cc2)oc1-c1ccc(OC)cc1` [Compound 300, N-Ethyl-5-(4-methoxyphenyl)-2-(4-(trifluoromethyl)phenyl)oxazole-4-carboxamide]: in test [1], the inhibition at 1 µM is 37% and the inhibition at 10 µM is 47%.
Consider `CCCNC(=O)c1nc(-c2ccc(C(F)(F)F)cc2)oc1-c1ccc(OC)cc1` [Compound 301, 5-(4-Methoxyphenyl)-N-propyl-2-(4-(Trifluoromethyl)phenyl)oxazole-4-carboxamide], for which, in test [1], the inhibition at 1 µM came to 21% and the inhibition at 10 µM was determined as 31%.
For `CCNC(=O)c1nc(-c2ccc(C(F)(F)F)cc2)oc1-c1ccc(OC)c(OC)c1` [Compound 302, 5-(3,4-dimethoxyphenyl)-N-ethyl-2-(4-(Trifluoromethyl)phenyl)oxazole-4-carboxamide], in that order: -34% and -29%.
For `CCNC(=O)c1nc(-c2ccc(C(F)(F)F)cc2)oc1-c1cc(OC)cc(OC)c1` [Compound 303, 5-(3,5-Dimethoxyphenyl)-N-ethyl-2-(4-(trifluoromethyl)phenyl)oxazole-4-carboxamide], in that order: 26% and 26%.
For `CCNC(=O)c1nc(-c2ccc(C(F)(F)F)cc2)oc1-c1cc(OC)c(OC)c(OC)c1` [Compound 304, N-Ethyl-2-(4-(trifluoromethyl)phenyl)-5-(3,4,5-trimethoxyphenyl)oxazole-4-carboxamide], in test [1], the inhibition at 1 µM is -47% and the inhibition at 10 µM is -74%.
For the compound `CCNC(=O)c1nc(-c2ccc(C(F)(F)F)cc2)oc1-c1ccncc1` [Compound 309, N-Ethyl-5-(pyridin-4-yl)-2-(4-(trifluoromethyl)phenyl)oxazole-4-carboxamide], in test [1], the inhibition at 1 µM was determined as 56% and the inhibition at 10 µM came to 51%.
Regarding `CCCNC(=O)c1nc(-c2ccc(C(F)(F)F)cc2)oc1-c1ccncc1` [Compound 310, N-Propyl-5-(pyridin-4-yl)-2-(4-(trifluoromethyl)phenyl)oxazole-4-carboxamide], in test [1], the inhibition at 1 µM worked out at 49% and the inhibition at 10 µM is 58%.
For `CCNC(=O)c1nc(-c2ccc(C(F)(F)F)cc2)oc1-c1cccc(O)c1` [Compound 318, N-Ethyl-5-(3-hydroxyphenyl)-2-(4-(trifluoromethyl)phenyl)oxazole-4-carboxamide] the same measures were 70% and 79%.
For `CCCNC(=O)c1nc(-c2ccc(C(F)(F)F)cc2)oc1-c1cccc(O)c1` [Compound 319, 5-(3-Hydroxyphenyl)-N-propyl-2-(4-(trifluoromethyl)phenyl)oxazole-4-carboxamide], in that order: 75% and 80%.
In the case of `CCNC(=O)c1nc(-c2ccc(C(F)(F)F)cc2)oc1-c1ccc(O)c(O)c1` [Compound 321, 5-(3,4-Dihydroxyphenyl)-N-ethyl-2-(4-(trifluoromethyl)phenyl)oxazole-4-carboxamide], in test [1], the inhibition at 1 µM came to 50% and the inhibition at 10 µM was 72%.
